Experimental data: ChEMBL document CHEMBL1201862, “PubChem BioAssay data set” (2004)
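Dose response: 5 concentrations. Exposure: 48 h. Format: 96-well plates. Endpoint: linear interpolation; highest concentration if not reached. GI50 is the concentration that inhibits growth by half.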 The source made the active and inactive calls. Cut-off read from the data, not from the text of the source: active = GI50 up to about 1.1 µM and inactive = higher.

Assays:
Experiment in all cases: NCI anticancer screen, dose series, 48 h
T47D = test system: T47D
CAKI-1 = test system: CAKI-1
KM12 = test system: KM12
MCF7 = test system: MCF7
SK-OV-3 = test system: SK-OV-3
HT-29 = test system: HT-29
ACHN = test system: ACHN
UACC-257 = test system: UACC-257
M14 = test system: M14
UACC-62 = test system: UACC-62
Malme-3M = test system: Malme-3M
SK-MEL-5 = test system: SK-MEL-5
U-251 = test system: U-251
HL-60 = test system: HL-60
LOX IMVI = test system: LOX IMVI
COLO 205 = test system: COLO 205
UO-31 = test system: UO-31
SNB-19 = test system: SNB-19
PC-3 = test system: PC-3
SF-539 = test system: SF-539
SW-620 = test system: SW-620
HCT-116 = test system: HCT-116
HOP-92 = test system: HOP-92
HOP-62 = test system: HOP-62
HCC 2998 = test system: HCC 2998
MDA-MB-435 = test system: MDA-MB-435
NCI-H522 = test system: NCI-H522
EKVX = test system: EKVX
HCT-15 = test system: HCT-15
OVCAR-5 = test system: OVCAR-5
SN12C = test system: SN12C
NCI-H23 = test system: NCI-H23
BT-549 = test system: BT-549
RPMI-8226 = test system: RPMI-8226
IGROV-1 = test system: IGROV-1
MDA-MB-231 = test system: MDA-MB-231
CCRF-CEM = test system: CCRF-CEM
SNB-75 = test system: SNB-75
K562 = test system: K562
SR = test system: SR
SK-MEL-2 = test system: SK-MEL-2
Hs-578T = test system: Hs-578T
SK-MEL-28 = test system: SK-MEL-28
OVCAR-8 = test system: OVCAR-8
OVCAR-3 = test system: OVCAR-3
OVCAR-4 = test system: OVCAR-4
A498 = test system: A498
A549 = test system: A549
SF-268 = test system: SF-268
RXF 393 = test system: RXF 393
NCI-H226 = test system: NCI-H226
SF-295 = test system: SF-295
MDA-N = test system: MDA-N
786-0 = test system: 786-0
MOLT-4 = test system: MOLT-4
NCI/ADR-RES = test system: NCI/ADR-RES
NCI-H460 = test system: NCI-H460
TK-10 = test system: TK-10
DU-145 = test system: DU-145
M19-MEL = test system: M19-MEL
KM-20L2 = test system: KM-20L2

In the case of `O=C1Nc2ccccc2/C1=N/NC(=S)N1CCCC1`, the GI50 (T47D) is reported as 6.25 µM (inactive), the GI50 (CAKI-1) is reported as 2.15 µM (inactive) and the GI50 (KM12) is reported as 2.4 µM (inactive). The GI50 (MCF7) was 2.07 µM (inactive), the GI50 (SK-OV-3) was 5.12 µM (inactive) and the GI50 (HT-29) was 1.19 µM (inactive). The GI50 (ACHN) was 0.64 µM (active), the GI50 (UACC-257) was 6.97 µM (inactive) and the GI50 (M14) was 1.56 µM (inactive). For the same compound, the GI50 (UACC-62) was 1.32 µM (inactive), the GI50 (Malme-3M) was 0.889 µM (active) and the GI50 (SK-MEL-5) was 0.585 µM (active). For the same compound, the GI50 (U-251) was 0.867 µM (active), the GI50 (HL-60) was 0.583 µM (active) and the GI50 (LOX IMVI) was 0.673 µM (active). For the same compound, the GI50 (COLO 205) was 1.44 µM (inactive), the GI50 (UO-31) was 0.632 µM (active) and the GI50 (SNB-19) was 1.15 µM (inactive). For the same compound, the GI50 (PC-3) was 0.507 µM (active), the GI50 (SF-539) was 1.08 µM (active) and the GI50 (SW-620) was 0.766 µM (active). The GI50 (HCT-116) was 0.425 µM (active), the GI50 (HOP-92) was 8.38 µM (inactive) and the GI50 (HOP-62) was 1.19 µM (inactive). The GI50 (HCC 2998) was 0.586 µM (active), the GI50 (MDA-MB-435) was 3.64 µM (inactive) and the GI50 (NCI-H522) was 2.12 µM (inactive). For the same compound, the GI50 (EKVX) was 2.37 µM (inactive), the GI50 (HCT-15) was 0.281 µM and the GI50 (OVCAR-5) was 12.8 µM (inactive). For the same compound, the GI50 (SN12C) was 1.91 µM (inactive), the GI50 (NCI-H23) was 3.01 µM (inactive) and the GI50 (BT-549) was 2.54 µM (inactive). For the same compound, the GI50 (RPMI-8226) was 0.743 µM (active), the GI50 (IGROV-1) was 1.87 µM (inactive) and the GI50 (MDA-MB-231) was 6.58 µM (inactive). For the same compound, the GI50 (CCRF-CEM) was 0.369 µM (active), the GI50 (SNB-75) was 3.45 µM (inactive) and the GI50 (K562) was 0.586 µM (active). The GI50 (SR) was 0.291 µM (active), the GI50 (SK-MEL-2) was 6.27 µM (inactive) and the GI50 (Hs-578T) was 2.13 µM (inactive). For the same compound, the GI50 (SK-MEL-28) was > 100 µM (inactive), the GI50 (OVCAR-8) was 1.02 µM (active) and the GI50 (OVCAR-3) was 0.53 µM (active). For the same compound, the GI50 (OVCAR-4) was 1.01 µM (active), the GI50 (A498) was 2.95 µM (inactive) and the GI50 (A549) was 0.736 µM (active). For the same compound, the GI50 (SF-268) was 9.93 µM (inactive), the GI50 (RXF 393) was 0.358 µM (active) and the GI50 (NCI-H226) was 0.247 µM (active). For the same compound, the GI50 (SF-295) was 0.662 µM (active), the GI50 (MDA-N) was 3.4 µM (inactive) and the GI50 (786-0) was 0.647 µM (active). For the same compound, the GI50 (MOLT-4) was 0.193 µM (active), the GI50 (NCI/ADR-RES) was 0.361 µM (active) and the GI50 (NCI-H460) was 0.499 µM (active). The GI50 (TK-10) was 8.26 µM (inactive) and the GI50 (DU-145) was 17.1 µM (inactive).

In the case of `CC1OC(O[C@@H]2C=C3CC[C@@H]4[C@H](CC[C@]5(C)[C@@H](c6ccc(=O)oc6)CC[C@]45O)[C@@]3(C)CC2)C(O)C(O)C1O` (stereo partly specified), the GI50 (KM12) is reported as 0.03 µM (active), the GI50 (MCF7) is reported as 0.03 µM (active) and the GI50 (M19-MEL) is reported as 0.03 µM (active). For the same compound, the GI50 (HT-29) was 0.03 µM (active), the GI50 (ACHN) was 0.00179 µM (active) and the GI50 (UACC-257) was 0.03 µM (active). For the same compound, the GI50 (KM-20L2) was 0.03 µM (active), the GI50 (U-251) was 0.03 µM (active) and the GI50 (LOX IMVI) was 0.03 µM (active). The GI50 (COLO 205) was 0.03 µM (active), the GI50 (SNB-19) was 0.03 µM (active) and the GI50 (SW-620) was 0.03 µM (active). The GI50 (HCT-15) was 0.0475 µM, the GI50 (OVCAR-5) was 0.03 µM (active) and the GI50 (NCI-H23) was 0.0475 µM (active). The GI50 (RPMI-8226) was 0.03 µM (active), the GI50 (IGROV-1) was 0.03 µM (active) and the GI50 (CCRF-CEM) was 0.03 µM (active). For the same compound, the GI50 (K562) was 0.03 µM (active), the GI50 (Hs-578T) was 0.00119 µM (active) and the GI50 (SK-MEL-28) was 0.03 µM (active). The GI50 (OVCAR-8) was 0.03 µM (active) and the GI50 (A498) was 0.03 µM (active).

With `CC(C)(C)OC(=O)NCC(=O)N(CCc1ccc(Cl)c(Cl)c1)CCN1CCCC1` the GI50 (T47D) was 22.7 µM (inactive), the GI50 (CAKI-1) was 18.4 µM (inactive) and the GI50 (KM12) was 16.3 µM (inactive). The GI50 (MCF7) was 16.4 µM (inactive), the GI50 (SK-OV-3) was 14.9 µM (inactive) and the GI50 (HT-29) was 6.32 µM (inactive). The GI50 (ACHN) was 19.5 µM (inactive), the GI50 (UACC-257) was 15.7 µM (inactive) and the GI50 (M14) was 14.3 µM (inactive). For the same compound, the GI50 (UACC-62) was 17.4 µM (inactive), the GI50 (Malme-3M) was 19.8 µM (inactive) and the GI50 (SK-MEL-5) was 13.7 µM (inactive). The GI50 (U-251) was 15.2 µM (inactive), the GI50 (HL-60) was 12.1 µM (inactive) and the GI50 (LOX IMVI) was 14.6 µM (inactive). The GI50 (COLO 205) was 13.6 µM (inactive), the GI50 (UO-31) was 14.6 µM (inactive) and the GI50 (SNB-19) was 17.8 µM (inactive). The GI50 (PC-3) was 15.3 µM (inactive), the GI50 (SF-539) was 16.8 µM (inactive) and the GI50 (SW-620) was 16.6 µM (inactive). The GI50 (HCT-116) was 13.7 µM (inactive), the GI50 (HOP-92) was 3.78 µM (inactive) and the GI50 (HOP-62) was 13.5 µM (inactive). The GI50 (HCC 2998) was 5.14 µM (inactive), the GI50 (MDA-MB-435) was 13.9 µM (inactive) and the GI50 (NCI-H522) was 14.5 µM (inactive). For the same compound, the GI50 (EKVX) was 21.7 µM (inactive), the GI50 (HCT-15) was 17.7 µM and the GI50 (OVCAR-5) was 18.9 µM (inactive). For the same compound, the GI50 (SN12C) was 17.3 µM (inactive), the GI50 (NCI-H23) was 17.1 µM (inactive) and the GI50 (BT-549) was 20 µM (inactive). The GI50 (RPMI-8226) was 5.01 µM (inactive), the GI50 (IGROV-1) was 15.8 µM (inactive) and the GI50 (MDA-MB-231) was 13.1 µM (inactive). The GI50 (CCRF-CEM) was 10.6 µM (inactive), the GI50 (SNB-75) was 17.5 µM (inactive) and the GI50 (K562) was 8.11 µM (inactive). The GI50 (SR) was 14.5 µM (inactive), the GI50 (SK-MEL-2) was 16.9 µM (inactive) and the GI50 (Hs-578T) was 18.8 µM (inactive). For the same compound, the GI50 (SK-MEL-28) was 13 µM (inactive), the GI50 (OVCAR-8) was 18 µM (inactive) and the GI50 (OVCAR-3) was 16.7 µM (inactive). The GI50 (OVCAR-4) was 21.2 µM (inactive), the GI50 (A498) was 17.8 µM (inactive) and the GI50 (A549) was 17.7 µM (inactive). For the same compound, the GI50 (SF-268) was 15.3 µM (inactive), the GI50 (RXF 393) was 14.9 µM (inactive) and the GI50 (NCI-H226) was 15 µM (inactive). For the same compound, the GI50 (SF-295) was 17.3 µM (inactive), the GI50 (MDA-N) was 14.3 µM (inactive) and the GI50 (786-0) was 14 µM (inactive). The GI50 (MOLT-4) was 8.41 µM (inactive), the GI50 (NCI/ADR-RES) was 15.3 µM (inactive) and the GI50 (NCI-H460) was 15.8 µM (inactive). For the same compound, the GI50 (TK-10) was 17.1 µM (inactive) and the GI50 (DU-145) was 16.9 µM (inactive).
